Patent US5574062A, “Coumarin derivative and use thereof” (Morinaga Milk Industry Co., Ltd., priority 1993, dated 1996)
Where two headings read alike, the source gives them in different places.

Experiments:
5-lipoxygenase = biological target: T1, 5-lipoxygenase (Rattus norvegicus, UniProt P12527); experiment: 5-lipoxygenase inhibition assay (RBL-1 supernatant, arachidonic acid, HPLC of 5-HETE); assay type: biochemical, rat (basophilic leukemia cells RBL-1, ATCC CRL1378)
T1 construct: host or cells: RBL-1 (rat basophilic leukemia cells)
T1 sequence (P12527 1-673): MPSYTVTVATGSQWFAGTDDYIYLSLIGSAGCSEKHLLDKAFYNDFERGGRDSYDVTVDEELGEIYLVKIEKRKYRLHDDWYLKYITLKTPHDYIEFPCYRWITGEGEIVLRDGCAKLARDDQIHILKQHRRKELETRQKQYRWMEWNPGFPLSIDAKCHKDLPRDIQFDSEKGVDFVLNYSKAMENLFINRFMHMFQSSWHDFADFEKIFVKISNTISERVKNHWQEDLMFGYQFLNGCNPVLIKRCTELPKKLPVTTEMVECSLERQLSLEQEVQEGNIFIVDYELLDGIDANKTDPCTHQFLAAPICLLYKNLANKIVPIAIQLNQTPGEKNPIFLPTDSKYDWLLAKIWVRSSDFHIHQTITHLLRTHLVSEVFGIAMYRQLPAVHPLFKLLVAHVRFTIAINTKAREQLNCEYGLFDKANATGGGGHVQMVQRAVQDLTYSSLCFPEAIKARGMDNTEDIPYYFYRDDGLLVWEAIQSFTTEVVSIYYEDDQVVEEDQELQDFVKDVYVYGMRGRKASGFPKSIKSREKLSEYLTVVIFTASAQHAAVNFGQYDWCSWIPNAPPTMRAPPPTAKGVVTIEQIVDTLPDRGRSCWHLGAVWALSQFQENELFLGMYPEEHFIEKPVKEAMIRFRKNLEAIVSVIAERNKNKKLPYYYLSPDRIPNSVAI
Description: Rat basophilic leukemia cells (RBL-1, ATCC CRL1378) were cultured in Dulbecco modified Eagle's medium containing 10% new-born bovine serum.
Cultured cells were collected and washed twice with a 50 mM Tris-buffered saline (containing 154 mM sodium chloride, pH: 7.4, hereinafter described as TBS). The cell suspension (4×10^7 cells/ml) was then sonicated and centrifuged at 10,000×g for 10 minutes.
The resultant supernatant was used to prepare an assay solution.
To an aliquot (15 μl) of the enzyme solution (40 mU/ml equivalent) was added 185 μl of TBS, 50 μl of a 2 mM adenosine triphosphate in TBS, 50 μl of a 12 mM calcium chloride in TBS, 1 μl of a 3 mM indomethacin in ethanol solution, 1 μl of an aqueous 300 mM reduced glutathione solution, and 3 μl of varied concentrated test compounds solution in ethanol. The resultant mixture was incubated at 37° C. for 5 minutes. Subsequently, 3 μl of a 2.5 mM arachidonic acid solution in ethanol was added to incubate the mixture for 2 minutes at 37° C. The reaction was ceased by the addition of 600 μl of methanol. After being centrifuged at 10,000×g for 5 minutes, 5-hydroxyeicosatetraenoic acid recovered in the supernatant was separated with a reverse phase high-performance liquid chromatography equipped with a C-18 column and measured the absorption of diene at 234 nm to quantify the activity of the enzyme.
Using the compounds of the present invention prepared in the same manner as in Examples 1-30, and Examples 33-36 as test samples and known baicalein (purchased from Wako Junyaku Kogyo) represented by the following formula 30 as a control: [drawing 34] the tests were performed for dose dependent inhibition to estimate IC50 values
It was prepared in the same method as in Test Example 2.
They were measured in the same method as in Test Example 2.

12-lipoxygenase [1] = biological target: T2, 12-lipoxygenase (Rattus norvegicus, UniProt F1LQ70); experiment: 12-lipoxygenase inhibition assay (rat platelet supernatant, arachidonic acid, HPLC of 12-HETE); assay type: biochemical, Sprague Dawley male rat (platelets)
T2 construct: The platelets were then sonicated at 4° C. and centrifuged at 100,000×g for 30 minutes to obtain a supernatant as a 12-lipoxygenase enzyme solution; from tissue; host or cells: Sprague Dawley rat platelets (from aortic blood), sonicated, 100,000 x g supernatant
T2 sequence (F1LQ70 1-663): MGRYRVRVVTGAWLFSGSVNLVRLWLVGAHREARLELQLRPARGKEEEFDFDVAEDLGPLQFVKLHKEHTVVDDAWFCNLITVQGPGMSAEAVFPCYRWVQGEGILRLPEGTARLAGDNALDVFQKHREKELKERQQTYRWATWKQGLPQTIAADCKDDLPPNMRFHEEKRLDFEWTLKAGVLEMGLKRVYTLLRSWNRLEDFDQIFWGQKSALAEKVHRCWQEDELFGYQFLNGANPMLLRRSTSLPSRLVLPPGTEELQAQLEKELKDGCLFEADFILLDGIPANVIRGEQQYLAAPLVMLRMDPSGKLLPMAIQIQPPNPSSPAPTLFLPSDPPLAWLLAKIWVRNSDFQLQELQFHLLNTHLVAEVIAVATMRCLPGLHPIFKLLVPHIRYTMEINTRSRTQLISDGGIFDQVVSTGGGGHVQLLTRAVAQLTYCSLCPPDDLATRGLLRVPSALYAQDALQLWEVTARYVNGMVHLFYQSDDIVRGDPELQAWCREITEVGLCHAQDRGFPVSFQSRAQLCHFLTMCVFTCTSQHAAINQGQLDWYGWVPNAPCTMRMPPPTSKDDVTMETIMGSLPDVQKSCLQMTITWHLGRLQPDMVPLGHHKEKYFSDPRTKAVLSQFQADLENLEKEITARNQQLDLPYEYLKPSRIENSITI
Description: (§1) A Sprague Dawley male rat was anesthetized with ether and bled from abdominal aorta using a syringe filled with about one-tenth volume of 3.8% sodium citrate. Blood was centrifuged at 180×g for 15 minutes at room temperature to pellet sanguineous platelet blood plasma. The resultant supernatant was again centrifuged at 1800×g for 10 minutes at 4° C. The pelleted platelets were rinsed twice with a washing buffer (50 mM Tris-hydrochloric acid buffer containing 154 mM sodium chloride and 2 mM EDTA, pH: 7.4). The platelets were then suspended in one-twentieth volume of a resuspension buffer (50 mM Tris-hydrochloric acid buffer containing 154 mM sodium chloride and 5.5 mM glucose, pH: 7.4). The platelets were then sonicated at 4° C. and centrifuged at 100,000×g for 30 minutes to obtain a supernatant as a 12-lipoxygenase enzyme solution.
(§2) The enzyme solution described above was diluted with the resuspension buffer above mentioned to prepare an assay solution so as to include about 2 mU/ml of 12-lipoxygenase. To an aliquot (300 μl) of the assay solution was added 1 μl of a 3 mM indomethacin-ethanol solution, 1 μl of an aqueous 300 mM reduced-glutathione solution, and 3 μl of varied concentrated test compounds solution in ethanol. The resultant mixture was incubated at 37° C. for 5 minutes. Subsequently, 3 μl of a 2.5 mM arachidonic acid solution in ethanol was added to incubate with for another 5 minutes at 37° C., then the reaction was ceased by the addition of 600 μl of methanol. After being centrifuged at 10,000×g for 5 minutes, 12-hydroxyeicosatetraenoic acid recovered in the supernatant was separated with a reverse phase high-performance liquid chromatography equipped with a C-18 column and measured the absorption of diene at 234 nm to quantify the activity of 12-lipoxygenase.
(§3) As test compounds were used the compounds of the present invention prepared in the same methods as in Example 4, Example 5 and Example 8 and the compounds prepared in the same methods as in Comparative Examples 1-5, and as a control was used esculetin (purchased from Tokyo Kasei), a known compound represented by the following formula: [drawing 33] and the test was conducted at varied concentrations.
(§4) The enzyme solution was prepared according to the same manner as in Test Example 1.
(§5) The inhibition assay was performed according to the same method as described in Test Example 1 except that the same samples used in measurement of the 5-lipoxygensase activity were used to estimate IC50 values. […]
(§6) They were measured in the same method as in Test Example 1.

12-lipoxygenase [2] = experiment: as above; assay type: biochemical, Sprague Dawley male rat (platelets); conditions: comparative tests by the inventors
Description: as §1, §2, §3, §4, §5, §6

[3] = system: 12-lipoxygenase of mastocytoma cells; conditions: literature; cited from earlier work
[4] = Formation of deacylated compounds by esterases in rat platelet enzyme solution (HPLC); assay type: in vitro ADME, rat (platelets); conditions: rat, platelet enzyme solution, 37° C., enzyme solution, read-out: conversion ratio to Formula 34b; for metabolised at 0.5 h, 10 µM: reaction time 30 minute; for metabolised at 1 h, 10 µM: reaction time 60 minute
Description: (§7) The test was performed to examine whether or not deacylated compounds would be formed due to esterases present in the enzyme solution when the compounds in the third embodiment according to the present invention were treated with the same enzyme solution as in Test Example 3.
(§8) The enzyme solution was prepared according to the same procedure as described in Test Example 1.
(§9) One ml of the above mentioned enzyme solution was diluted with 11 ml of a resuspension buffer. To an aliquot (300 μl) of this enzyme solution was added 3 μl of a 1.0×10^-3 M test compound solution in dimethyl sulfoxide. The mixture was incubated at 37° C. for an indicated time, then the reaction was ceased by the addition of 1 ml of acetonitrile. Twenty μl of the above mixture was subjected to reverse phase high-performance liquid chromatography equipped with a C-18 column to quantify the amount of deacylated products. As a control, a test using 300 μl of the resuspension buffer solution mentioned above instead of the enzyme solution was also performed.
(§10) Conditions of reverse phase high-performance liquid chromatography:
(§11) Column: Superspher RP-18(e) (purchased from Merck), 4.0 mm in diameter, 125 mm in length
(§12) Flow velocity: 1.0 ml/minute
(§13) Eluent: Acetonitrile containing 50 mM NaClO4 and 50 mM orthophosphate-water (55:45)
(§14) Column temperature: 30° C.
(§15) Calibration: Absorbance of 280 nm
(§16) The results of the test upon the compounds of Example 40 (Formula 43b) and Example 57 (Formula 74b) of the compounds according to the present invention will be shown. Since both the compounds of Example 40 (Formula 43b) and Example 57 (Formula 74b) are thought to be converted into the compound of Referential Example 8 (Formula 34b) through deacylation, the retention time of the compound of Referential Example 8 was checked strictly under the employed conditions with reverse phase high-performanceliquid chromatography mentioned above (retention time: 2.49 minutes) and a calibration curve of the compound was made using authentic sample of Referential Example 8.

[5] = system: esterases present in the enzyme solution; experiment: as above; assay type: in vitro ADME, rat (platelets); conditions: resuspension buffer instead of the enzyme solution
Description: as §7, §8, §9, §10, §11, §12, §13, §14, §15, §16

12-lipoxygenase [6] = conditions: known compound used as lead; cited from earlier work
[7] = 12-Lipoxygenase inhibiting activity IC50 value, Test Example 5, Table 22
[8] = Test Example 2, Table 2, read-out: IC50 value of 5-lipoxygenase
[9] = Test Example 2, Table 2, read-out: IC50 value of 12-lipoxygenase

In the case of O=c1ccc2cc(O)c(O)cc2o1 [Esculetin, 6,7-dihydroxycoumarin, reference compound], the IC50 (5-lipoxygenase) is reported as 4300 nM, the “12-lipoxygenase inhibitory activity (in words)” value (12-lipoxygenase [1]) is reported as “considerably weaker inhibitory effect on 12-lipoxygenase than the compounds of the present invention” and the IC50 (12-lipoxygenase [1]; [7]) is reported as 4400 nM. For the same compound, the IC50 (12-lipoxygenase [1]; 12-lipoxygenase IC50 value, Test Example 1, Table 1 and text) was 4400 nM, the “selectivity between 12-lipoxygenase and 5-lipoxygenase (in words)” value (12-lipoxygenase [2]) was “no selectivity was found” and the IC50 [3] was 2500 nM.

In the case of CC(=O)Oc1cc2cc(-c3cccc(Cl)c3)c(=O)oc2cc1OC(C)=O [Example 40], the metabolised at 0.5 h, 10 µM [4] is reported as 70.7%, the metabolised at 1 h, 10 µM [4] is reported as 72.8% and the “formation of deacylated compound in buffer control” value [5] is reported as “no deacylated compound (Formula 34b) was formed”.

For O=c1cc(-c2ccccc2)oc2cc(O)c(O)c(O)c12 [Baicalein, 5,6,7-trihydroxyflavone, reference compound], the IC50 (5-lipoxygenase) is listed as 2400 nM, the IC50 (5-lipoxygenase; read-out: IC50 value of 5-lipoxygenase, Test Example 2, Table 2) is listed as 2400 nM and the “12-lipoxygenase inhibitory activity (in words)” value (12-lipoxygenase [6]) is listed as “relatively strong 12-lipoxygenase inhibitory activity”. For the same compound, the “selectivity (in words)” value (12-lipoxygenase [6]) was “relatively high selectivity”, the IC50 (12-lipoxygenase [1]; [7]) was 42 nM and the IC50 (12-lipoxygenase [1]; 12-lipoxygenase inhibiting activities of deacylated compounds (IC50 values), Test Example 3, Table 11, value belongs to the deacylated compound) was 42 nM. The IC50 (12-lipoxygenase [1]; IC50 value of 12-lipoxygenase, Test Example 2, Table 2) was 42 nM and the IC50 (12-lipoxygenase [1]; read-out: 12-Lipoxygenase inhibiting activity IC50 value, Test Example 5, Table 22) was 42 nM.

In the case of O=c1cc(-c2ccccc2)c2ccc(O)c(O)c2o1 [Comp. Example 3, reference compound], the IC50 (5-lipoxygenase; text of Test Example 1, not shown in Table 1, read-out: 5-lipoxygenase inhibitory activity IC50 value) is reported as 640 nM, the IC50 (12-lipoxygenase [1]; Test Example 1, Table 1 and text, read-out: 12-lipoxygenase IC50 value) is reported as 260 nM and the “selectivity between 12-lipoxygenase and 5-lipoxygenase (in words)” value (12-lipoxygenase [2]) is reported as “no selectivity was found”.

With CCC(=O)Oc1cc2cc(-c3cccc(Cl)c3)c(=O)oc2cc1OC(=O)CC [Example 57] the metabolised at 0.5 h, 10 µM [4] was 42.4%, the metabolised at 1 h, 10 µM [4] was 60.4% and the “formation of deacylated compound in buffer control” value [5] was “no deacylated compound (Formula 34b) was formed”.

O=c1oc2c(O)c(O)ccc2cc1-c1ccc2ccccc2c1 [Example 61] showed an IC50 (5-lipoxygenase; Test Example 5, Table 22, read-out: 5-Lipoxygenase inhibiting activity IC50 value) of 230 nM and an IC50 (12-lipoxygenase [1]; Test Example 5, Table 22, read-out: 12-Lipoxygenase inhibiting activity IC50 value) of 34 nM.

COc1ccc(-c2cc3ccc(O)c(O)c3oc2=O)cc1 [Example 27, 3-(4-methoxyphenyl)-7,8-dihydroxycoumarin] showed an IC50 (5-lipoxygenase; [8]) of 660 nM and an IC50 (12-lipoxygenase [1]; [9]) of 27 nM.

Cc1ccc(-c2cc3ccc(O)c(O)c3oc2=O)o1 [Example 35] showed an IC50 (5-lipoxygenase; [8]) of 340 nM and an IC50 (12-lipoxygenase [1]; [9]) of 15 nM.

O=c1oc2c(O)c(O)ccc2cc1-c1cccc(Cl)c1 [Example 22, 3-(3-chlorophenyl)-7,8-dihydroxycoumarin] showed an IC50 (5-lipoxygenase; [8]) of 270 nM, an IC50 (12-lipoxygenase [1]; [9]) of 9.6 nM and an IC50 (12-lipoxygenase [1]; Test Example 3, Table 11, value belongs to the deacylated compound, read-out: 12-lipoxygenase inhibiting activities of deacylated compounds (IC50 values)) of 9.6 nM.
